Results as given in ChEMBL document CHEMBL5653631, “A Potent and Selective ULK1 Inhibitor Suppresses Autophagy and Sensitizes Cancer Cells to Nutrient Stress” (iScience, 2018).

Columns and labels:
[1] = target: 3-phosphoinositide-dependent protein kinase 1 (Homo sapiens) (UniProt O15530); assay: Inhibition of human recombinant PDK1 at 40 nM related to control ULK1
[2] = target: Vascular endothelial growth factor receptor 2 (Homo sapiens) (UniProt P35968); assay: Inhibition of human recombinant KDR at 40 nM in presence of ATP by radiometric assay relative to control
Sequence of Vascular endothelial growth factor receptor 2 (Homo sapiens) (P35968 whole entry): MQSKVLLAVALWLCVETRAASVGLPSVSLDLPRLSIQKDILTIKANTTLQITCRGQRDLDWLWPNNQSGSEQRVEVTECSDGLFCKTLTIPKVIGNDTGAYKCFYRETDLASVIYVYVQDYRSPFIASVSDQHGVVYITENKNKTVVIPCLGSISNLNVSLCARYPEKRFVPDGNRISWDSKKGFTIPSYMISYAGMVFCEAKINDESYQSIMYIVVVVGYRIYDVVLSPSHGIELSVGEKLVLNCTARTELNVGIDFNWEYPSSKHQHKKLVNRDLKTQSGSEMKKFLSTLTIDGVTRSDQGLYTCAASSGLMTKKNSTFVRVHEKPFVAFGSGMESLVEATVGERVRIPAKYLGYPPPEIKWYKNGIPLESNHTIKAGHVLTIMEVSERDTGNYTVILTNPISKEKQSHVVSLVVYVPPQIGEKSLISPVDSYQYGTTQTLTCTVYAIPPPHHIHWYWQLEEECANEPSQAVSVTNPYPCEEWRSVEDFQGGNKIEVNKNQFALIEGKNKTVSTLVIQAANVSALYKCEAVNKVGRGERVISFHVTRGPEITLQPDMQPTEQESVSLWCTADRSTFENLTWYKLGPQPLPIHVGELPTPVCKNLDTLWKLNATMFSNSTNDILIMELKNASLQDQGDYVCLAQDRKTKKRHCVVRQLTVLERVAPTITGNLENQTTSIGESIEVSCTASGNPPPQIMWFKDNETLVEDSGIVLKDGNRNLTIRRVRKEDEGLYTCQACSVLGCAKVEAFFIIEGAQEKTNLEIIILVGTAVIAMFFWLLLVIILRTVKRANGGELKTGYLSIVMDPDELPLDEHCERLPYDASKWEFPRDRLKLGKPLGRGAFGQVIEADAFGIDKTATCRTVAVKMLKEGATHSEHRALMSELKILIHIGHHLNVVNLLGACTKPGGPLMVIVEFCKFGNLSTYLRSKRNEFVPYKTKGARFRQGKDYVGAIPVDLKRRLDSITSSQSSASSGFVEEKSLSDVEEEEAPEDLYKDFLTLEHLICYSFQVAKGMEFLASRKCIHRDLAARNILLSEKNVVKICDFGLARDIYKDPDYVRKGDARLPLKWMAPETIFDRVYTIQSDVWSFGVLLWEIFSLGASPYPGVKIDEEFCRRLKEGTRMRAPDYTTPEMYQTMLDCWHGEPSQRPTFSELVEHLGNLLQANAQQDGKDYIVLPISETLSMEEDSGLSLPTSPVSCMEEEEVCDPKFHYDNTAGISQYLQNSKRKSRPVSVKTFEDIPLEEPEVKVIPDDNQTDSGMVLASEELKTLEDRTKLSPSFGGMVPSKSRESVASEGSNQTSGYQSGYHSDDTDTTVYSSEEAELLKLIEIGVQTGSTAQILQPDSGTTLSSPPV

[3] = target: T1, Ephrin type-B receptor 4 (Homo sapiens) (UniProt P54760); assay: Inhibition of human recombinant EphB4 at 500 nM in presence of ATP by radiometric assay relative to control
T1 sequence (whole entry): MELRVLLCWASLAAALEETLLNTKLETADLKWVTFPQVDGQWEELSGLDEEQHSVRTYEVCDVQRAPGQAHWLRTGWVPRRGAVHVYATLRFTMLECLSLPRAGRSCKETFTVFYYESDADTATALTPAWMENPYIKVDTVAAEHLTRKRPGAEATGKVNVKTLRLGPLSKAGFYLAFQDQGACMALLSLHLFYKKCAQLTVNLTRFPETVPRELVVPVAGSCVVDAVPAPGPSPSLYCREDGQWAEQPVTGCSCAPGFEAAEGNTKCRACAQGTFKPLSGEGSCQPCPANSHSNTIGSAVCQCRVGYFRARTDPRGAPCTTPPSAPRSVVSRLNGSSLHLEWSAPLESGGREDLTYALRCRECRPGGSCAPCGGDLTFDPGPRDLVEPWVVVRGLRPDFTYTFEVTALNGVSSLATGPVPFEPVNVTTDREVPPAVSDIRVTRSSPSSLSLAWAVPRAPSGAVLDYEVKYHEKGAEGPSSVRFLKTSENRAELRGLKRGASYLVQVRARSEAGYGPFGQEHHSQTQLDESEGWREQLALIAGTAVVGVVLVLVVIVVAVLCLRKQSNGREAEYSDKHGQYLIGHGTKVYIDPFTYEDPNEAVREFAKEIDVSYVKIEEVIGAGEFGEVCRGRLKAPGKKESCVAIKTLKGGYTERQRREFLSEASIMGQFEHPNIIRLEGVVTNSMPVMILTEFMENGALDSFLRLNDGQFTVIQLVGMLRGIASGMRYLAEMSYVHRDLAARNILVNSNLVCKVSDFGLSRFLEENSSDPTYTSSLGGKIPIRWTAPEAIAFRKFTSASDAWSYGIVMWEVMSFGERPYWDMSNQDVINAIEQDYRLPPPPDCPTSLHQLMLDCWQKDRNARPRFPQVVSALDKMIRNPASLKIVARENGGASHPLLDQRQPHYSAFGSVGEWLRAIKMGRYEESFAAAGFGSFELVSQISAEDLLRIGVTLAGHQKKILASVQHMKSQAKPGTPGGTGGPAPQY

[4] = target: Wee1-like protein kinase (Homo sapiens) (UniProt P30291); assay: Inhibition of human recombinant Wee1 at 500 nM in presence of ATP by radiometric assay relative to control
Sequence of Wee1-like protein kinase (Homo sapiens) (P30291 whole entry, looked up): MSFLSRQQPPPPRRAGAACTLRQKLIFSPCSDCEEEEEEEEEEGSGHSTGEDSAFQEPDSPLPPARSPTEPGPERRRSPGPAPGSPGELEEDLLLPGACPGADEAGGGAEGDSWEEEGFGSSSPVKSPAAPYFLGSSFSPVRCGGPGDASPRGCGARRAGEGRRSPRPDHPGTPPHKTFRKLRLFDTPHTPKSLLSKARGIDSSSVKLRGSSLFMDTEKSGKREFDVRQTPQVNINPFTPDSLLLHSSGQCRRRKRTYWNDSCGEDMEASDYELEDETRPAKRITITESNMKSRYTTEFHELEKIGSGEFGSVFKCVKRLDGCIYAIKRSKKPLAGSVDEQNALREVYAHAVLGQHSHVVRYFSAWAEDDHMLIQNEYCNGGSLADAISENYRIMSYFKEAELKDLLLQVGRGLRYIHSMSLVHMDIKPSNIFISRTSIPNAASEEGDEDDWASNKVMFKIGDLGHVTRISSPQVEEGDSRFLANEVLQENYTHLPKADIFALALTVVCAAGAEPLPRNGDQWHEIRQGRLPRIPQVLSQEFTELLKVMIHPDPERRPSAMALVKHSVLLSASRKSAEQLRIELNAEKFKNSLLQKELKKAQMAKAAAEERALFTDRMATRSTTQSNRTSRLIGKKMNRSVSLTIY

[5] = target: SRSF protein kinase 3 (Homo sapiens) (UniProt Q9UPE1); assay: Inhibition of human recombinant MSSK1 at 500 nM in presence of ATP by radiometric assay relative to control
Sequence of SRSF protein kinase 3 (Homo sapiens) (Q9UPE1 whole entry): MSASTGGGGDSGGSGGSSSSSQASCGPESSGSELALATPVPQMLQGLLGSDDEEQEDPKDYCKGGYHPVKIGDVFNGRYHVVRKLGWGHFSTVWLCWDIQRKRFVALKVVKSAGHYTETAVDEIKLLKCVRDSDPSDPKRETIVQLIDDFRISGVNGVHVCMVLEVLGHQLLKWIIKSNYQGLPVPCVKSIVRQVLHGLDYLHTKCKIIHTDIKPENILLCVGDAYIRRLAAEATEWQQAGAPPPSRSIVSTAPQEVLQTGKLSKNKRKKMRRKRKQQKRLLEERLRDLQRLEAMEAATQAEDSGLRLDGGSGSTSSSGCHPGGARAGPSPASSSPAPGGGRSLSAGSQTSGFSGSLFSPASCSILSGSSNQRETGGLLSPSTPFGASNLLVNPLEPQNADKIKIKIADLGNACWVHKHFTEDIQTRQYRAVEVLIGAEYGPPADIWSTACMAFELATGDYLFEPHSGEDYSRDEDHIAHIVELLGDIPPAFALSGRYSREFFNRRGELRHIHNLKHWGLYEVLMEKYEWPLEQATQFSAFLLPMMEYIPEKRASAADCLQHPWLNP

[6] = species: Homo sapiens; assay: Inhibition of human recombinant CK1d at 500 nM in presence of ATP by radiometric assay relative to control
[7] = target: T2, Mitogen-activated protein kinase kinase kinase kinase 2 (Homo sapiens) (UniProt Q12851); assay: Inhibition of human recombinant GCK at 15 nM in presence of ATP by radiometric assay relative to control
T2 sequence (whole entry): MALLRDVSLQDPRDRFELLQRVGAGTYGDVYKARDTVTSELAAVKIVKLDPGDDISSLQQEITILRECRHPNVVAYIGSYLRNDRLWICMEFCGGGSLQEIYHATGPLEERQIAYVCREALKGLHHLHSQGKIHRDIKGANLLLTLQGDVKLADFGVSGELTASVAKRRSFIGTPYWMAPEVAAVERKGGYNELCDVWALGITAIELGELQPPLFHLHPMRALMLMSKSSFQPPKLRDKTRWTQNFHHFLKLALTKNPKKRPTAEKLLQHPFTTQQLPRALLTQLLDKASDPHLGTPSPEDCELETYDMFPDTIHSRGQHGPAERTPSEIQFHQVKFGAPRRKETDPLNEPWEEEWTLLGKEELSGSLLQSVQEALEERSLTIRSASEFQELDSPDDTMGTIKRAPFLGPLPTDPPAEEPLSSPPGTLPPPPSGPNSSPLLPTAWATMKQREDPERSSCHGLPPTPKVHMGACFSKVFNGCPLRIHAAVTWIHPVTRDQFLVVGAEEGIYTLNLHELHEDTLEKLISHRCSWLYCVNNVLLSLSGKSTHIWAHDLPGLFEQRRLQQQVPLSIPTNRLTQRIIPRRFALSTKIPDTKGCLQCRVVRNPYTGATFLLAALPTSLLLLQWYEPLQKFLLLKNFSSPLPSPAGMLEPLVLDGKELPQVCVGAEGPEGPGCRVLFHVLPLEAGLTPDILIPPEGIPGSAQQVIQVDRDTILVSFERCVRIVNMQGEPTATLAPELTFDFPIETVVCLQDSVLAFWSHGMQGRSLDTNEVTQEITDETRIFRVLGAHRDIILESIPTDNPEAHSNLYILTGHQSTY

[8] = target: T3, Tyrosine-protein kinase ITK/TSK (Homo sapiens) (UniProt Q08881); assay: Inhibition of human recombinant ITK at 15 nM related to control ULK1
T3 sequence (whole entry): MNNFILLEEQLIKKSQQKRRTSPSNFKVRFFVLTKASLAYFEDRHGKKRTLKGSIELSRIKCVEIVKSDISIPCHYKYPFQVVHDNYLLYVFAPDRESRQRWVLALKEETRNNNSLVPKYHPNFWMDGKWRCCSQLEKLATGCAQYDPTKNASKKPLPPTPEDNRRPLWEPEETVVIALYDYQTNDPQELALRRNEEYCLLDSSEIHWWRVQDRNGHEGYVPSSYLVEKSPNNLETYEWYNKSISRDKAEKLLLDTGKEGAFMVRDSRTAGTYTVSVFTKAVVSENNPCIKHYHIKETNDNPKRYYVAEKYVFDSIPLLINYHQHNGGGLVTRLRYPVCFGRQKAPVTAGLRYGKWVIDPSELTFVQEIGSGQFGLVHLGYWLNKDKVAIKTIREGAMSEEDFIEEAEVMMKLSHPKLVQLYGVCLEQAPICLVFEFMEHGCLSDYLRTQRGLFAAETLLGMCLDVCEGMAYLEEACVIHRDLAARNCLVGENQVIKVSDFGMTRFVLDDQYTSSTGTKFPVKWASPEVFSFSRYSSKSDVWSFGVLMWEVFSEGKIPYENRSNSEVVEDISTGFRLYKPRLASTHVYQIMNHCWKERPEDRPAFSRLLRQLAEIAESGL

[9] = target: Proto-oncogene tyrosine-protein kinase receptor Ret (Homo sapiens) (UniProt P07949); assay: Inhibition of human recombinant RET at 15 nM related to control ULK1
Sequence of Proto-oncogene tyrosine-protein kinase receptor Ret (Homo sapiens) (P07949 whole entry): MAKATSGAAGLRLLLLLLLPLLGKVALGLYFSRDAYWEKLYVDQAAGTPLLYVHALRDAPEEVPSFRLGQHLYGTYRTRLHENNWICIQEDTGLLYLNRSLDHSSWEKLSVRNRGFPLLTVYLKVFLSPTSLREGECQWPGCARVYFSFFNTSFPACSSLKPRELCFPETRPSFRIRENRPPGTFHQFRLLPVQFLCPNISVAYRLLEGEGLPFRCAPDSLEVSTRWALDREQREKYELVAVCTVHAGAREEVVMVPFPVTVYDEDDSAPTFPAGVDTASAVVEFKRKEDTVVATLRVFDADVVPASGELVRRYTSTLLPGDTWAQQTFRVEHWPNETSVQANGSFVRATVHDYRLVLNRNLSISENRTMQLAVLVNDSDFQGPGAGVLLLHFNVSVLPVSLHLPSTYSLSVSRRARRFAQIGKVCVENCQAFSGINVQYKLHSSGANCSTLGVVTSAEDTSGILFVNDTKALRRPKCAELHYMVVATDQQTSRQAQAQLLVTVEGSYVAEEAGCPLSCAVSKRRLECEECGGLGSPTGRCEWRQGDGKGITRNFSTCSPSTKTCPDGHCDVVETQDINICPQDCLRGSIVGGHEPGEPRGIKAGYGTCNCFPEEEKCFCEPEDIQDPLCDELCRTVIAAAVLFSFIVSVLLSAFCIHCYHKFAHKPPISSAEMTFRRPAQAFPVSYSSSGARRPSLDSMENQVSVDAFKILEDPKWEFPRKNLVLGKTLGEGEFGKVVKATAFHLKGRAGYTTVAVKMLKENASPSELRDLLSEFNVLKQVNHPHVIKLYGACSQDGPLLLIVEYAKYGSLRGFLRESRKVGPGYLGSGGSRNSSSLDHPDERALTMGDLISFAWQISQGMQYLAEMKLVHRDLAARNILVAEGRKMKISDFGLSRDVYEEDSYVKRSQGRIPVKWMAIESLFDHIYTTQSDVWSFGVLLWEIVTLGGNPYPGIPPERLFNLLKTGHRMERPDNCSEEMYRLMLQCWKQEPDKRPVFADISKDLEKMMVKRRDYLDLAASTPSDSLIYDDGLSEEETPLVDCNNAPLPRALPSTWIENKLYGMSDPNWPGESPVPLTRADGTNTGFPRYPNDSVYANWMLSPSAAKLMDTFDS

Sequence of 3-phosphoinositide-dependent protein kinase 1 (Homo sapiens) (O15530 whole entry, looked up): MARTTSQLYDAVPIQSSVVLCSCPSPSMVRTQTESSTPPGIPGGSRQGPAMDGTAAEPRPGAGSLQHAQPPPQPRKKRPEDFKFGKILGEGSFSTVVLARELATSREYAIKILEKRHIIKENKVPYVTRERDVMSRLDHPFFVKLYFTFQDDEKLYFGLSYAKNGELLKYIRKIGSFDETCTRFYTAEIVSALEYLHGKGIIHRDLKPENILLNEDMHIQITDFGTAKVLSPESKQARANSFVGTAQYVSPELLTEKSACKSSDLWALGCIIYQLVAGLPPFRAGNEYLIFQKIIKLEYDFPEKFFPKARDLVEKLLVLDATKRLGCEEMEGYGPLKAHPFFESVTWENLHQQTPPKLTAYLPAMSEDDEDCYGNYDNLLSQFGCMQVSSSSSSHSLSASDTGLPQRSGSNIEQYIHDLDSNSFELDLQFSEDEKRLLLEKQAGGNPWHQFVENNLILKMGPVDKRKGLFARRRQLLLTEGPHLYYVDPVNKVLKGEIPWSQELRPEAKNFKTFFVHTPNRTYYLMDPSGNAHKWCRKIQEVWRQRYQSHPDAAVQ

Compound: O=C(N[C@@H](C1CC1)C(F)(F)F)c1cc(-c2cnn3cc(-c4ccc(F)cc4)cnc23)cs1
- fold change (FC) [1]: 0
- inhibition [2]: 5%

Compound: CNC(=O)c1ccccc1Oc1nc(Nc2cc(OC)c(OC)c(OC)c2)ncc1Br
- inhibition [3]: 0%
- inhibition [4]: 16%
- inhibition [5]: 15%
- inhibition [6]: 10%

Compound: CC(C)[C@H](NC(=O)c1cc(-c2cnn3cc(-c4ccc(OCCN5CCCCC5)cc4)cnc23)cs1)C(F)(F)F
- inhibition [7]: 34%
- fold change (FC) [8]: 0.05
- fold change (FC) [9]: 0.16
